“Also recorded” adds a separate entry of the source. Where no end group is shown, it is not given here. [ ]: non-standard residue; d: D form.
Tests used:
TBA 2.1 mice [1] = assay: Rotarod test; assay type: in vivo, mouse; details: 0.1 mg/day i.p. for 4 weeks (micropump), before vs after treatment
Source text: FIG. 2: The so-called “rotarod” test is used to measure how long an animal is able to balance on a rotating rod before falling off. This allows the animal's neuromotor performance to be measured. The longer the animal is able to balance, the less strongly the motor neurons are affected by the phenotype of neurodegeneration. The difference between before and after treatment is plotted in seconds. […] As expected, the degeneration has thus progressed. […] Thus, the treatment slowed, or even stopped, the neurodegeneration in both instances.

TgSwDI mouse model [2] = assay: Object recognition test (ORT); assay type: in vivo; details: TgSwDI mice
Method: FIG. 1: Here, the result of the so-called “object recognition test” (ORT) is shown. Animals treated with D3D3 (amidated) (details in Table 2) and animals treated with placebo were placed individually and separately from each other in a box in which two objects were located. After the animals had time to explore both objects, the animals were removed from the box again and not placed back in there until 24 hours later. Before that, however, one object was replaced with a new object different therefrom. Animals having memory now preferably explore the new object. Animals having no memory of having stayed in the box 24 hours earlier spend the same amount of time exploring the old object and the new object. The time that the animal spends with the old object (white bars) and the new object (black bars) is measured in seconds. It is clearly apparent that the animals treated with the placebo spend the same amount of time with the new and the old objects. […] Thus, only the animals treated with D3D3 show a functioning memory in the test.
FIG. 5: Here, the result of the so-called “object recognition test” (ORT) is shown. Animals treated with RD2D3 (amidated) (details in Table 2) and animals treated with placebo were placed individually and separately from each other in a box in which two objects were located. After the animals had time to explore both objects, the animals were removed from the box again and not placed back in there until 24 hours later. Before that, however, one object was replaced with a new object different therefrom. Animals having memory now preferably explore the new object. Animals having no memory of having stayed in the box 24 hours earlier spend the same amount of time exploring the old object and the new object. The time that the animal spends with the old object (black bars) and the new object (white bars) is measured in seconds. It is clearly apparent that the animals treated with the placebo spent the same amount of time with the new and the old objects.

TBA 2.1 mice [3] = assay: SHIRPA test; assay type: in vivo, mouse; details: 0.1 mg/day i.p. for 4 weeks (micropump), before vs after treatment, FIG. 3, listed as D3D3 (amidated)
Method: FIG. 3: The SHIRPA test is a test where a number of characteristics, including reflexes, are tested. Each characteristic is assessed separately from the others, and points are awarded in each case. The higher the number of points, the more progressed the phenotype, which is to say the neurological damage, is. The SHIRPA test was measured prior to (black bars) and after (white bards) the treatment (treatment details are provided in Table 2). […] D3D3 thus acts more efficiently than D3.

TgSwDI mouse model [4] = assay: Morris water maze; assay type: in vivo; details: TgSwDI mice, 7 mg/4 weeks i.p. (micropump), day 5, FIG. 4; listed as RD2D3 (amidated)
Method: FIG. 4: The so-called “Morris water maze” is used to measure the spatial memory of animals. The time is measured in seconds that the animal requires to locate a platform hidden closely beneath the water surface in a water tank. This is measured in several experiments per day on several consecutive days. […] The search time is plotted in seconds on five consecutive days. The learning of animals treated with RD2D3 (amidated) was significant.

[5] = molecular target: T1, amyloid beta fibrils (Aß1-42) (Homo sapiens, UniProt P05067); assay: SPR binding kinetics, amyloid beta fibrils; details: heterogeneous binding model, FIG. 8
T1 construct: 1 mg lyophilized Aß1-42 and N-terminal biotinylated Aß1-42; biotin (only on part of the peptide molecules)
T1 sequence (P05067 672-713): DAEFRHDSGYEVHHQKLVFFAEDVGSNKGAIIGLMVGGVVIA
Method: (§1) 1 mg lyophilized Aß1-42 and N-terminal biotinylated Aß1-42 were each dissolved in 1 ml 100% hexafluoroisopropanol (HFIP) and dissolved overnight at room temperature. For the oligomer and fibril preparation, non-biotinylated Aß was used with N-terminal biotinylated Aß at a ratio of 1:10 and the HFIP was evaporated (Concentrator 5301 from Eppendorf). The resultant Aß film, at a final concentration of 80 μM, was placed in sodium phosphate buffer (10 mM, pH 7.4) and incubated (RT, 600 rpm). The incubation time was 3 h for the oligomer preparation, and 24 h for the fibril preparation. 100% N-terminal biotinylated Aß1-42 without incubation was used for the preparation of monomers.
The density gradient centrifugation was carried out subsequent to the Aß preparation to purify the respective Aß species according to the size of the same. An iodixanol gradient in 10 mM sodium phosphate buffer, pH 7.4 with rising concentrations from 50% to 5% v/v iodixanol was used for this purpose. 100 μl of the Aß sample was applied and separated by way of ultracentrifugation (3 h, 4° C., 259000 g). […]
(§2) Binding kinetics were likewise measured by way of SPR spectroscopy using a T200 device from Biacore (GE Healthcare). […] The binding curves were evaluated by way of kinetic fit models (heterogeneous binding model) using the Biacore T200 evaluation software (version 2.0). […]

[6] = molecular target: T2, amyloid beta oligomers (Aß1-42) (Homo sapiens, UniProt P05067); assay: SPR binding kinetics, amyloid beta oligomer
T2 construct: 1 mg lyophilized Aß1-42 and N-terminal biotinylated Aß1-42; biotin (only on part of the peptide molecules)
T2 sequence (P05067 672-713): as above
Method: as §1
The density gradient centrifugation was carried out subsequent to the Aß preparation to purify the respective Aß species according to the size of the same. An iodixanol gradient in 10 mM sodium phosphate buffer, pH 7.4 with rising concentrations from 50% to 5% v/v iodixanol was used for this purpose. 100 μl of the Aß sample was applied and separated by way of ultracentrifugation (3 h, 4° C., 259000 g). Subsequently, the gradient was fractionated into 14 fractions, 140 μl each. Monomeric Aß are present in the first two top fractions, Aß oligomers in fractions 4 to 6, and Aß fibrils in fractions […].
Immobilization for Surface Plasmon Resonance (SPR) Spectroscopy A T200 from Biacore (GE Healthcare) was used for SPR spectroscopy. The Aß species purified by way of density gradient centrifugation were directly immobilized on a sensor chip (Series S Sensor Chips SA) according to the manufacturer's instructions by way of biotin-streptavidin coupling. 1×PBS was used as the running buffer. Loading took place at 25° C. and a flow rate of 5 μl/min. […]
as §2

D3D3 amidated: dimer D3D3 (SEQ ID NO: 6), amidated at position 24 at the free C-terminus ([dR][dP][dR][dT][dR][dL][dH][dT][dH][dR][dN][dR][dR][dP][dR][dT][dR][dL][dH][dT][dH][dR][dN][dR]-NH2; N-terminus assumed; SMILES CC(C)C[C@@H](NC(=O)[C@@H](CCCNC(=N)N)NC(=O)[C@H](NC(=O)[C@@H](CCCNC(=N)N)NC(=O)[C@H]1CCCN1C(=O)[C@H](N)CCCNC(=N)N)[C@H](C)O)C(=O)N[C@H](Cc1c[nH]cn1)C(=O)N[C@@H](C(=O)N[C@H](Cc1c[nH]cn1)C(=O)N[C@H](CCCNC(=N)N)C(=O)N[C@H](CC(N)=O)C(=O)N[C@H](CCCNC(=N)N)C(=O)N[C@H](CCCNC(=N)N)C(=O)N1CCC[C@@H]1C(=O)N[C@H](CCCNC(=N)N)C(=O)N[C@@H](C(=O)N[C@H](CCCNC(=N)N)C(=O)N[C@H](CC(C)C)C(=O)N[C@H](Cc1c[nH]cn1)C(=O)N[C@@H](C(=O)N[C@H](Cc1c[nH]cn1)C(=O)N[C@H](CCCNC(=N)N)C(=O)N[C@H](CC(N)=O)C(=O)N[C@H](CCCNC(=N)N)C(N)=O)[C@H](C)O)[C@H](C)O)[C@H](C)O)
Rotarod (TBA 2.1 mice [1]; FIG. 2, listed as D3D3): able to stop the progression of the phenotype | Rotarod (TBA 2.1 mice [1]; FIG. 2, listed as D3D3 (amidated)): exhibited no worsening of the neuromotor symptoms | Object recognition (TgSwDI mouse model [2]; 1 mg/4 weeks i.p. (micropump), FIG. 1): significant | Object recognition (TgSwDI mouse model [2]; 1 mg/4 weeks i.p. (micropump), FIG. 1, listed as D3D3): considerably improves cognition | Object recognition (TgSwDI mouse model [2]; 1 mg/4 weeks i.p. (micropump), FIG. 1, listed as D3D3 (amidated)): spend much more time with the new object | SHIRPA (TBA 2.1 mice [3]): showed no significant worsening of the SHIRPA value; also recorded: acts more efficiently than the simple peptide D3 (amidated)

RD2D3 amidated: dimer RD2D3 (SEQ ID NO: 4), amidated at position 24 at the free C-terminus ([dP][dT][dL][dH][dT][dH][dN][dR][dR][dR][dR][dR][dR][dP][dR][dT][dR][dL][dH][dT][dH][dR][dN][dR]-NH2; N-terminus assumed; SMILES CC(C)C[C@@H](NC(=O)[C@@H](CCCNC(=N)N)NC(=O)[C@H](NC(=O)[C@@H](CCCNC(=N)N)NC(=O)[C@H]1CCCN1C(=O)[C@@H](CCCNC(=N)N)NC(=O)[C@@H](CCCNC(=N)N)NC(=O)[C@@H](CCCNC(=N)N)NC(=O)[C@@H](CCCNC(=N)N)NC(=O)[C@@H](CCCNC(=N)N)NC(=O)[C@@H](CCCNC(=N)N)NC(=O)[C@@H](CC(N)=O)NC(=O)[C@@H](Cc1c[nH]cn1)NC(=O)[C@H](NC(=O)[C@@H](Cc1c[nH]cn1)NC(=O)[C@@H](CC(C)C)NC(=O)[C@H](NC(=O)[C@H]1CCCN1)[C@H](C)O)[C@H](C)O)[C@H](C)O)C(=O)N[C@H](Cc1c[nH]cn1)C(=O)N[C@@H](C(=O)N[C@H](Cc1c[nH]cn1)C(=O)N[C@H](CCCNC(=N)N)C(=O)N[C@H](CC(N)=O)C(=O)N[C@H](CCCNC(=N)N)C(N)=O)[C@H](C)O)
Water maze (TgSwDI mouse model [4]): able to improve the cognition of SweDI mice | Object recognition (TgSwDI mouse model [2]; 7 mg/4 weeks i.p. (micropump), FIG. 5): significant | Object recognition (TgSwDI mouse model [2]; 7 mg/4 weeks i.p. (micropump), FIG. 5, listed as RD2D3 (amidated)): spend much more time with the new object; also recorded: able to improve the cognition of SweDI mice

RKRTRLHTHRNR [cD3(P2K)]
Binding strength (KD, kinetics) to amyloid beta fibrils [5]: sub-pM binding range

cD3z: cD3 zero, cyclized D3 without any further amino acid attachments (cyclo([dR][dP][dR][dT][dR][dL][dH][dT][dH][dR][dN][dR]); SMILES CC(C)C[C@H]1NC(=O)[C@@H](CCCNC(=N)N)NC(=O)[C@@H]([C@H](C)O)NC(=O)[C@@H](CCCNC(=N)N)NC(=O)[C@H]2CCCN2C(=O)[C@@H](CCCNC(=N)N)NC(=O)[C@@H](CCCNC(=N)N)NC(=O)[C@@H](CC(N)=O)NC(=O)[C@@H](CCCNC(=N)N)NC(=O)[C@@H](Cc2c[nH]cn2)NC(=O)[C@@H]([C@H](C)O)NC(=O)[C@@H](Cc2c[nH]cn2)NC1=O)
Rmax, contribution of KD2 (high-affinity site) to RU total loading ([6]; oligomers, FIG. 7, high-affinity site): 21% | Rmax, contribution of the low-affinity site to RU total loading ([6]; oligomers, FIG. 7, low-affinity site (white bar)): 79%

rprtrlhthrnr ([dR][dP][dR][dT][dR][dL][dH][dT][dH][dR][dN][dR]) [linear D3, known D-enantiomeric peptide D3, linear, unmodified C-terminal carboxyl group, reference compound]
Binding strength (KD, kinetics) to amyloid beta oligomer ([6]; heterogeneous binding model, FIG. 7): binds only a low-affinity site, but not a high-affinity site
